Laboratory results as given in BigSolDB 2.1.

O=C(O)c1cccc(O)c1O
solubility (mole fraction)
Conditions | 278.15 K | 283.15 K | 288.15 K | 293.15 K | 298.15 K | 303.15 K | 308.15 K | 313.15 K | 318.15 K
in acetone | 0.0969 | 0.0987 | 0.101 | 0.105 | 0.108 | 0.113 | 0.116 | 0.121 | 0.127
in acetonitrile | 0.00923 | 0.0101 | 0.0108 | 0.0115 | 0.013 | 0.0147 | 0.0158 | 0.0174 | 0.0198
in ethanol | 0.0838 | 0.0855 | 0.0884 | 0.0907 | 0.0944 | 0.0973 | 0.101 | 0.105 | 0.11
in ethyl acetate | 0.0459 | 0.048 | 0.0513 | 0.0547 | 0.059 | 0.0613 | 0.066 | 0.0719 | 0.0761
in ethyl formate | 0.0232 | 0.0245 | 0.0258 | 0.0277 | 0.0301 | 0.0321 | 0.0351 | 0.0374 | 0.0411
in isopentanol | 0.0569 | 0.0605 | 0.064 | 0.067 | 0.0709 | 0.0744 | 0.0803 | 0.0859 | 0.0904
in isopropanol | 0.0697 | 0.0727 | 0.0764 | 0.0824 | 0.0879 | 0.0902 | 0.0976 | 0.103 | 0.11
in isopropyl acetate | 0.0426 | 0.045 | 0.0494 | 0.0532 | 0.0568 | 0.0602 | 0.0644 | 0.0696 | 0.0728
in methyl acetate | 0.0466 | 0.0493 | 0.0529 | 0.0571 | 0.0594 | 0.0621 | 0.0665 | 0.0726 | 0.0764
in n-butanol | 0.0653 | 0.0683 | 0.0706 | 0.0737 | 0.0766 | 0.0806 | 0.0853 | 0.0903 | 0.0952
in n-propanol | 0.0664 | 0.07 | 0.0727 | 0.0761 | 0.0788 | 0.084 | 0.0873 | 0.0915 | 0.0977
in n-propyl acetate | 0.0454 | 0.048 | 0.0504 | 0.0534 | 0.0564 | 0.0581 | 0.0615 | 0.0672 | 0.0721
